Source: US20250262185A1, “METHODS OF ADMINISTERING NEUROPSYCHIATRIC MEDICATIONS BASED ON RENAL IMPAIRMENT” (Sumitomo Pharma America, Inc., priority 2024, published 2025)
Like-named read-outs stand apart in the source and are kept apart here.

Assays:
hERG = hERG (Homo sapiens, UniProt Q12809); test: toxicological studies, hERG inhibition; format: biochemical; settings: concentrations up to 30 μM
[1] = in vivo
Description: Any of the embodiments of this disclosure can be practiced to prevent accumulation of SEP-103 in the body exceeding levels studied and deemed safe in preclinical toxicology studies. […].

clinical = settings: both, human, plasma, oral, 25 mg
Description: (§1) Renal function was assessed according to estimated glomerular filtration rate (eGFR) calculated using the Modification of Diet in Renal Disease (MDRD) equation at Screening and Check-in.
(§2) Healthy controls with normal renal function were enrolled in an effort to approximately match demographics (age, sex, weight, race) across the 2 groups. Potential subjects were screened to assess their eligibility to enter the study within 28 days (Day −28 to Day −3) prior to dose administration (Day 1).
(§3) Nine healthy controls, 9 subjects with mild renal impairment, and 6 subjects with moderate renal impairment were enrolled.
(§4) Male and female subjects aged between 18 and 70 years (inclusive) with a body mass index (BMI) between 18.0 and 40.0 kg/m^2 (inclusive) were eligible for study inclusion. Subjects were in good health except for specific inclusion criteria related to the status of renal impairment.
(§5) Subjects fasted for a minimum of 8 hours before dosing, and an additional 4 hours post-dose; intake of water was restricted except for the period from 1-hour pre-dose through 1-hour post-dose.
(§6) Final Results: Results were obtained by fitting an ANOVA model to the natural log-transformed PK parameter, with renal function group as fixed effect and subject as random effect. Results were back transformed to obtain the geometric LS mean ratio and 90% CI.

[2] = Phase 1 pharmacokinetic study of SEP-856 in subjects with mild and moderate renal impairment compared to normal renal function (Example 3); settings: for SEP-383103 AUC0-∞ Geo LS Mean / SEP-383103 Cmax Geo LS Mean: ANOVA; for SEP-383103 AUC0-∞ Geo LS Mean / SEP-383103 Cmax Geo LS Mean / MRAUC (metabolite-to-parent ratio based on AUC0-∞) / SEP-383103 plasma Cmax / SEP-383103 plasma Tmax: n=8; for MRAUC (metabolite-to-parent ratio based on AUC0-∞) / SEP-383103 plasma Cmax: GeoMean; for SEP-383103 plasma Cmax / SEP-383103 plasma Tmax: metabolite after single dose SEP-363856 25 mg; for SEP-383103 plasma Tmax: Median
Description: as §1, §2, §3, §4, §5, §6

[3] = Phase 1 pharmacokinetic study of SEP-363856 in subjects with severe renal impairment and ESRD compared to normal renal function (Example 1)
Description: Renal function was assessed according to estimated glomerular filtration rate (eGFR) calculated using the Modification of Diet in Renal Disease (MDRD) equation at Screening and Check-in. Estimates calculated using the Cockcroft-Gault equation were also reported. Subjects in Group 1 had severe renal impairment not requiring dialysis and subjects in Group 2 had ESRD requiring dialysis.
Healthy matched controls with normal renal function were enrolled to match (age, sex, weight, race) across the 2 groups. A healthy control could be matched to more than 1 renally impaired subject. Potential subjects were screened to assess their eligibility to enter the study within 28 days (Day −28 to Day −3) prior to dose administration (Day 1). Each subject completed 1 or 2 treatment periods (1 treatment period for Group 1 and normal healthy subjects with normal renal function and 2 treatment periods for Group 2).
Subjects in Group 1 and the normal healthy subjects were admitted into the Clinical Research Unit (CRU) on Day −2 and confined to the CRU until discharge on Day 5. […] No food was allowed for 4 hours post-dose. Subjects in Group 1 returned to the CRU for a Follow-up visit approximately 7 days after discharge (i.e., Day 12±2).
Subjects in Group 2 followed their established dialysis schedule. They were admitted into the CRU on Day −2 and confined to the CRU until discharge on Day 5. […]

[4] = final results, Moderate vs Healthy

Sequence of hERG (Q12809 whole entry): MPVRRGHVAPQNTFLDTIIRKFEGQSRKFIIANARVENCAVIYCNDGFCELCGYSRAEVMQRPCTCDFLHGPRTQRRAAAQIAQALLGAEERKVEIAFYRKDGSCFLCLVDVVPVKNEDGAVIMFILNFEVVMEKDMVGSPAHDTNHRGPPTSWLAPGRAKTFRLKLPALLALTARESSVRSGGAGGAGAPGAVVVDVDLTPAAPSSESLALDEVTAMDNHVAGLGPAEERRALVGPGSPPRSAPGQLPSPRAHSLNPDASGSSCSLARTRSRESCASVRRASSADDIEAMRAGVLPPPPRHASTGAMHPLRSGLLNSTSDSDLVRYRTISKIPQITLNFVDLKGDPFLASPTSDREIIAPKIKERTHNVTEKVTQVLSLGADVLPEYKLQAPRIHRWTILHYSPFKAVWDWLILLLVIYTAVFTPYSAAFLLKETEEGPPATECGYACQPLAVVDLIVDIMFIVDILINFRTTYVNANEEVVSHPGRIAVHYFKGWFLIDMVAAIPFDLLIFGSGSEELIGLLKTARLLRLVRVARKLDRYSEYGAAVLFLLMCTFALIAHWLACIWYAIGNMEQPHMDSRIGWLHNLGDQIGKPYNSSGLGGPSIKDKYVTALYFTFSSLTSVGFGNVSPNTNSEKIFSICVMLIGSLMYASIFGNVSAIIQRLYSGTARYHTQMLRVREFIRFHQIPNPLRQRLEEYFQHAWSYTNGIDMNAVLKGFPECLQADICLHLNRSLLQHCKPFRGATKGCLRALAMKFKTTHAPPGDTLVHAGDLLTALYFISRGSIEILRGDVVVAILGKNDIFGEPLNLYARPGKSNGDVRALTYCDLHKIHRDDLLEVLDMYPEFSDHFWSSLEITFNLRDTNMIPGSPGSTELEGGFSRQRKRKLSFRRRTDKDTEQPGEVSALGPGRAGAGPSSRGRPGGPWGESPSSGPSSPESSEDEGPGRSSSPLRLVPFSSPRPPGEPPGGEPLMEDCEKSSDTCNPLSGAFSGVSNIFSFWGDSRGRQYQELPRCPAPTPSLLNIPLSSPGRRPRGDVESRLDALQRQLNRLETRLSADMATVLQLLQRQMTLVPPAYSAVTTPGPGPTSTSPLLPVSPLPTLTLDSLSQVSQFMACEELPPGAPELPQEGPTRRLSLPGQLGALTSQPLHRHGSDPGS

O=C(O)[C@@H]1OCCc2ccsc21 [SEP-383103]
hERG inhibition (hERG): no hERG inhibition | blood concentration studied and deemed to be safe ([1]; dog): 1100 ng/mL | exposure level studied and deemed to be safe ([1]; dog): 12200 ng·h/mL | blood concentration studied and deemed to be safe ([1]; rat): 700 ng/mL | exposure level studied and deemed to be safe ([1]; rat): 11700 ng·h/mL | AUC(0-inf) (clinical): 613 ng·h/mL | correlation between exposure (AUC0-∞ and Cmax) and degree of renal impairment ([2]; final results): significant correlation | SEP-383103 AUC0-∞ Geo LS Mean ([2]; final results, Mild): 769.5 ng·h/mL | SEP-383103 Cmax Geo LS Mean ([2]; final results, Mild): 54.98 ng/mL | SEP-383103 AUC0-∞ Geo LS Mean ([2]; final results, Moderate): 1043 ng·h/mL | SEP-383103 Cmax Geo LS Mean ([2]; final results, Moderate): 56.30 ng/mL | MRAUC (metabolite-to-parent ratio based on AUC0-∞) ([2]; final results, Healthy): 0.7348 | SEP-383103 AUC0-∞ Geo LS Mean Ratio ([2]; final results, Mild vs Healthy): 125.47% | SEP-383103 Cmax Geo LS Mean Ratio ([2]; final results, Mild vs Healthy): 128.43% | MRAUC (metabolite-to-parent ratio based on AUC0-∞) ([2]; final results, Mild): 0.9643 | SEP-383103 AUC0-∞ Geo LS Mean Ratio [2, 4]: 170.12% | SEP-383103 Cmax Geo LS Mean Ratio [2, 4]: 131.50% | MRAUC (metabolite-to-parent ratio based on AUC0-∞) ([2]; final results, Moderate): 1.276 | SEP-383103 plasma Cmax ([2]; final results, Mild): 54.98 ng/mL | SEP-383103 plasma Tmax ([2]; final results, Mild): 5.000 h | SEP-383103 plasma Cmax ([2]; final results, Moderate): 56.30 ng/mL | SEP-383103 plasma Tmax ([2]; final results, Moderate): 6.000 h | metabolite Tmax change ([2]; mild renal impairment vs healthy): no change | correlation between exposure (AUC0-∞ and AUC0-last) and renal function ([3]; human, in vivo): strong correlation | metabolite median Tmax versus healthy subjects ([3]; severe renal impairment): delayed substantially
